Target: ACV-synthetase of C. acremonium C-10 (Hapsidospora chrysogena, UniProt P25464)
Assay: Cell-free ACV synthetase reaction (desalted extract, HPLC analysis after monobromobimane derivatization)
Format: biochemical
Conditions: for inhibition of ACV-synthetase: qualitative, concentration not clearly stated for the inhibitors
Experimental: a Typical reaction mixtures contained desalted extract (about 0.5 mg protein), 20 µg cycloheximide, 10 mM ATP, 10 mM MgC12, 5 mM dithiothreitol, 5 mM L-α-aminoadipic acid, I mM L -cysteine and 5 mM L -valine, all components dissolved in 100 µl of 100 mM MOPS/KOH at pH 7.5. Reactions were performed at 25°C in a water bath shaker, and terminated by addition of 25 µl of 20% trichloroacetic acid. Precipitated protein was removed by centrifugation, and the supernatant stored at -20°C prior to analysis. (MOPS = 3-[N-Morpholino] propanesulfonic acid, - a biological buffer available from Sigma Chemical Co.
Mycelia from Example 1 were washed twice with cold 50 mM Tris/HC1 buffer (pH 7.2) containing 100 mM KC1. After centrifugation, the pellet was resuspended in a volume of cold 100 mM MOPS/KOH buffer (pH 7.2) equal to twice the pellet volume; the buffer also contained 50 mM KCI, 30 mM 2-mercaptoethanol, 20 mM EDTA and 50% glycerol (v/v). The cells were disrupted in a French Press (Aminco) at 8000 psi and the debris removed by centrifugation (30,000×g, 15 min). The clear yellow supernatant fluid was stored at -20°C or immediately desalted by passage through a Sephadex G-15 column using an elution buffer of 100 mM MOPSiKOH (pH 7.2) containing 50 mM KCI and 20% glycerol (v/v). The resulting solution contained 10 to 20 mg protein per ml and was either used immediately for the cell-free reaction or frozen for future use.
Stored frozen extract (from Example 2) was thawed, desalted over Sephadex eG-15, and eluted with 100 mM MOPS/KOH at pH 7.5. Typical reaction mixtures contained desalted extract (about 0.5 mg protein), 20 µg cycloheximide, 10 mM ATP, 10 mM MgCI2, 5 mM dithiothreitol, 5 mM L-α-aminoadipic acid, 1 mM L -cysteine and 5 mM L-valine, all components dissolved in 100 µl of 100 mM MOPS/KOH at pH 7.5. Reactions were performed at 25°C in a water bath shaker, and terminated by addition of 25 µl of 20% trichloroacetic acid. Precipitated protein was removed by centrifugation, and the supernatant stored at -20°C prior to analysis.
Analyses were performed following derivatization with monobromobimane: to a 20 I sample were added successively 2 µl of 3M KOH, 4 µl of 0.03M dithiothreitol in 2M NH4HCO3 (pH 8.2), and 4 µl of 0.3M monobromobimane in acetonitrile. This mixture was stored for 15 min. in the dark, and then extracted with methylene chloride (4 × 200 I). Five µl of 1 M citric acid (pH 2.2) was added, and 25 µl of this final solution was injected into the HPLC apparatus.
The HPLC analysis employed two solutions, viz., A, 880 mg for pentanesulfonic acid, 2.5 ml of acetic acid in I liter H20 (pH 3.6); B, 880 mg of pentanesulfonic acid, 2.5 ml acetic acid, 50 ml water and 950 ml acetonitrile. […]

ACV-synthetase of C. acremonium C-10, sequence (P25464 whole entry): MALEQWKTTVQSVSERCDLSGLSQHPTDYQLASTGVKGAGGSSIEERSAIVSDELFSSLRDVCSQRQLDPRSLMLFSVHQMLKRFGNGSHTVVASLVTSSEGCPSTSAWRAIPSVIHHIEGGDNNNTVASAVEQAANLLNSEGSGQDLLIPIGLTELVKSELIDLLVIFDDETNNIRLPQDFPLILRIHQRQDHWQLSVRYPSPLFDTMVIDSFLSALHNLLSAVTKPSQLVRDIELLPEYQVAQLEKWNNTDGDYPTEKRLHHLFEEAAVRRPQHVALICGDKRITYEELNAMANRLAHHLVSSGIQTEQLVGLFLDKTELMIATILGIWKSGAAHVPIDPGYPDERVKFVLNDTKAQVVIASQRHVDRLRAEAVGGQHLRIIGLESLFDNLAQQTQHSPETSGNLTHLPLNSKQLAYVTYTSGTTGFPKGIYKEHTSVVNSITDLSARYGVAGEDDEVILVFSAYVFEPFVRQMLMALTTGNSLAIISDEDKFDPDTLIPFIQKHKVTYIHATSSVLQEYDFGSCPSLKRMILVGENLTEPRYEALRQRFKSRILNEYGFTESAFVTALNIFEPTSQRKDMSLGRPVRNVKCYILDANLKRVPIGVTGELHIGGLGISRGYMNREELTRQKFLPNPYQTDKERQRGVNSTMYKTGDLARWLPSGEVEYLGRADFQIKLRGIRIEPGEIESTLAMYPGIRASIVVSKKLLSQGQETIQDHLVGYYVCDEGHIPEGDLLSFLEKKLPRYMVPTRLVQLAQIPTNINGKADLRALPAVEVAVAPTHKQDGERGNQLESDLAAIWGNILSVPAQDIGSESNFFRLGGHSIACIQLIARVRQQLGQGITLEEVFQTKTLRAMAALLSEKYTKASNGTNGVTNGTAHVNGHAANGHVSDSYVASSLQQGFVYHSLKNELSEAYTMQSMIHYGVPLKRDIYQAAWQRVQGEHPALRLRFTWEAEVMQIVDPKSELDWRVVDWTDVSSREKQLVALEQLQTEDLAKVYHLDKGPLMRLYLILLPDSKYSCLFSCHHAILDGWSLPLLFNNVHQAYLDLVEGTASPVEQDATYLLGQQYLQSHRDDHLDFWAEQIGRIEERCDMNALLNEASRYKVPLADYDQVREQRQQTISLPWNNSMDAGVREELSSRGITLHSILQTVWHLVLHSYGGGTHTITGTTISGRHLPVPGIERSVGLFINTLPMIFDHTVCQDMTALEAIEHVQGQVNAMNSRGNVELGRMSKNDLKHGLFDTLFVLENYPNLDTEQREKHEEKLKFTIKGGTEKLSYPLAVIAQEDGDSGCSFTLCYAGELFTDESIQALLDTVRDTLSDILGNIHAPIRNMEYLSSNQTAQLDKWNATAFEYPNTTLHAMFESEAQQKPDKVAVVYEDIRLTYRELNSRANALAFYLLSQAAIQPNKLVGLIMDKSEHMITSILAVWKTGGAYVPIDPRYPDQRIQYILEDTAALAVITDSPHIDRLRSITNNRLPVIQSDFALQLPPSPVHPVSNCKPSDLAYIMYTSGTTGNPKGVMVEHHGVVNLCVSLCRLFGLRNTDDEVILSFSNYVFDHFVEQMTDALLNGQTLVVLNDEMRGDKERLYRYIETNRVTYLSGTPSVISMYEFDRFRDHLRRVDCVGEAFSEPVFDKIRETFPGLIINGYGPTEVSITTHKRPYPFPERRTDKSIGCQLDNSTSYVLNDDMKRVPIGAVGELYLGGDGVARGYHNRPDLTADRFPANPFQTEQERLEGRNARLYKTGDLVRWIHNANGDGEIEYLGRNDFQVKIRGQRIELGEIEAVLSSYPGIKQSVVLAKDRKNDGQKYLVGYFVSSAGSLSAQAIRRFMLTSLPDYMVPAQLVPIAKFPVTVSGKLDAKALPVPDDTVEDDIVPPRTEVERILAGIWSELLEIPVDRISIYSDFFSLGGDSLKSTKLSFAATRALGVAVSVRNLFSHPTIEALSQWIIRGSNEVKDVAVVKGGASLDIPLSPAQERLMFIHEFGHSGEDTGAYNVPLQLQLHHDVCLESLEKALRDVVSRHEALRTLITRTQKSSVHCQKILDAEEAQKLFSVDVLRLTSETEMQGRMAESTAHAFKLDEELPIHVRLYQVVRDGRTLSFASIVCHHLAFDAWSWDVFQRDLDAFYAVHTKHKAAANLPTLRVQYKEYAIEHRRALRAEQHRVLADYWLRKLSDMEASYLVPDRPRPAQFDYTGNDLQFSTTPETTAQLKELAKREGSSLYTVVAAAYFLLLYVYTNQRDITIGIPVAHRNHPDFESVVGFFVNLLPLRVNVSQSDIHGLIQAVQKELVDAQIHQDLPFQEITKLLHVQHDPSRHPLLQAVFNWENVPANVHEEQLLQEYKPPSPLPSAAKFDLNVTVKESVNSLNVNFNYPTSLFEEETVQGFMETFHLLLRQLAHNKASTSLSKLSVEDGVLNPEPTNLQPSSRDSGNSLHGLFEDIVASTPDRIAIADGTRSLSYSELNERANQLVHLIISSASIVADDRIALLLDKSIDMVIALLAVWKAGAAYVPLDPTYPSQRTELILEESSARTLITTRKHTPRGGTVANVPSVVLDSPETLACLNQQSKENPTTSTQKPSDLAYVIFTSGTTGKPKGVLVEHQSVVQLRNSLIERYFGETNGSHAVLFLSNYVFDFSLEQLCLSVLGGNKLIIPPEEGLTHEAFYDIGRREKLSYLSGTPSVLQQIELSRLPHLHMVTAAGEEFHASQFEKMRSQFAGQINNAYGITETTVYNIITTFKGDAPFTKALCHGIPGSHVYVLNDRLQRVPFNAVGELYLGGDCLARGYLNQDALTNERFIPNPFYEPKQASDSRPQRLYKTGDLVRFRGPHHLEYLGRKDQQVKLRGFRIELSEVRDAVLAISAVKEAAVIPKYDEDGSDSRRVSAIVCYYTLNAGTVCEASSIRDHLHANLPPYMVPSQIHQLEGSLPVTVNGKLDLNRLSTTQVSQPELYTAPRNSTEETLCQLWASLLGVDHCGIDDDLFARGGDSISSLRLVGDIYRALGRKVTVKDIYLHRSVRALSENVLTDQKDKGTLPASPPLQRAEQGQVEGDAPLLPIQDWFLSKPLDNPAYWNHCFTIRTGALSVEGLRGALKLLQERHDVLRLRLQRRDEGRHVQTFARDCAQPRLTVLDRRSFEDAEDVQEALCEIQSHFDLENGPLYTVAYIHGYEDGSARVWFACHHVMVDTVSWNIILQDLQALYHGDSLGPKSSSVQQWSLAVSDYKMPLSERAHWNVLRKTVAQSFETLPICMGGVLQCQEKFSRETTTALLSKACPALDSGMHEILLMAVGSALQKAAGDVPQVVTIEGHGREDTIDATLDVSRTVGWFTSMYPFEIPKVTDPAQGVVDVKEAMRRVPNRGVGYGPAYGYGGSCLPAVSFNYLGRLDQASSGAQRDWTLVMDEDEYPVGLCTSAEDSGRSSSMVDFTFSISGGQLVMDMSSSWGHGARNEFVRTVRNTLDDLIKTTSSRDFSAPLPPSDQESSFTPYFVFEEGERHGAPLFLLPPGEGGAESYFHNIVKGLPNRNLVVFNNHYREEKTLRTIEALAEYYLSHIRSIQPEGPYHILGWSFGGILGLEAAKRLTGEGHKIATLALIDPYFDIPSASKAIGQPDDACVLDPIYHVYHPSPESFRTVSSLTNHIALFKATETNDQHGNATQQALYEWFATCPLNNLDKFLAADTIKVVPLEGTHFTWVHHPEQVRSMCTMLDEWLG

| Compound | effect on LLD-ACV synthesis (added as a fourth amino acid, concentration not given) | inhibition of ACV-synthetase |
| --- | --- | --- |
| NCC(=O)O [glycine] | unaffected | – |
| Fructose-1.6-diphosphate | – | inhibit |
| glucose-1-phosphate | – | inhibit |
| orthophosphate | – | inhibit |

Reference: patent EP0280051A1, “ACV synthetase” (QUEEN'S UNIVERSITY AT KINGSTON, priority 1987, dated 1988)
